Paper PMC2263054, “Functional evolution of the vitamin D and pregnane X receptors” (BMC Evolutionary Biology, 2007)
Read-outs that look alike come from different tables or passages of the source.

Assays:
[1] = biological target: T1, Xenopus laevis VDR (Xenopus laevis, UniProt O13124); assay: luciferase reporter transactivation assay in HepG2-NTCP cells, GAL4/xlVDR LBD chimera with tk-UAS-Luc; format: cell-based; conditions: for Xenopus VDR relative efficacy: relative to maximal reference compound (1 μM calcitriol, efficacy = 1.0); for EC50 / Xenopus VDR EC50 ± SD: HepG2-NTCP cells, luciferase reporter; for EC50: read-out: Xenopus VDR EC50 ± SD; for Xenopus VDR EC50 ± SD: unit not given, also cells saying No effect; for Effect on Xenopus laevis VDR: screening for activators, at least three concentrations of each drug
T1 sequence (O13124 90-422): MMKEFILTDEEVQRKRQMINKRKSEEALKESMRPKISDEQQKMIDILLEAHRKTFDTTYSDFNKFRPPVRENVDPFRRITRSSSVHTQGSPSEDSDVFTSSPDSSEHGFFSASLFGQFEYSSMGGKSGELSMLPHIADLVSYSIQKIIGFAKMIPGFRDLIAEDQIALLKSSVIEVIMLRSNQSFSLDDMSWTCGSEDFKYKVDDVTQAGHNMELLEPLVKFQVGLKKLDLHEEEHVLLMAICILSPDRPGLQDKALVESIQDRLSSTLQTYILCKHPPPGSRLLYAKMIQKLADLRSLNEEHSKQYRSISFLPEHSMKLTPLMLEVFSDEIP

[2] = biological target: T2, Human VDR (Homo sapiens, UniProt P11473); assay: luciferase reporter transactivation assay in HepG2-NTCP cells, full-length hVDR with CYP3A4-PXRE-Luc; conditions: for EC50: read-out: Human VDR EC50 ± SD; for EC50 / Human VDR EC50 ± SD: HepG2-NTCP cells, luciferase reporter; for Human VDR EC50 ± SD: unit not given, also cells saying No effect
T2 sequence (P11473 1-427): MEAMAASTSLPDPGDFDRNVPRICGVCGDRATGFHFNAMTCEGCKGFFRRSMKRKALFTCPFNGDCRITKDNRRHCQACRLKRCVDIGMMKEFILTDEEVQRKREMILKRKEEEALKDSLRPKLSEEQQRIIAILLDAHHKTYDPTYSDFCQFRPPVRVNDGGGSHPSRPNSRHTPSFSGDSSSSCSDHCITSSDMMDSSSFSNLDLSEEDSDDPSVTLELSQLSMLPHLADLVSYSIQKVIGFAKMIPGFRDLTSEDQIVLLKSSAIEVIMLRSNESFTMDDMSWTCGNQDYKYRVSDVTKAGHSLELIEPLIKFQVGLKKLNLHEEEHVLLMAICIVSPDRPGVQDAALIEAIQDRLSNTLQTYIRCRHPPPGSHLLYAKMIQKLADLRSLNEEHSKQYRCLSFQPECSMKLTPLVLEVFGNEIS

[3] = biological target: T3, Zebrafish VDR (Danio rerio, UniProt Q9PTN2); assay: luciferase reporter transactivation assay in HepG2-NTCP cells, GAL4/zfVDR LBD chimera with tk-UAS-Luc; format: cell-based; conditions: for Zebrafish VDR relative efficacy: relative to maximal reference compound (1 μM calcitriol, efficacy = 1.0); for EC50 / Zebrafish VDR EC50 ± SD: HepG2-NTCP cells, luciferase reporter; for EC50: read-out: Zebrafish VDR EC50 ± SD; for Zebrafish VDR EC50 ± SD: unit not given, also cells saying No effect; for Effect on zebrafish VDR: screening for activators, at least three concentrations of each drug
T3 sequence (Q9PTN2 121-453): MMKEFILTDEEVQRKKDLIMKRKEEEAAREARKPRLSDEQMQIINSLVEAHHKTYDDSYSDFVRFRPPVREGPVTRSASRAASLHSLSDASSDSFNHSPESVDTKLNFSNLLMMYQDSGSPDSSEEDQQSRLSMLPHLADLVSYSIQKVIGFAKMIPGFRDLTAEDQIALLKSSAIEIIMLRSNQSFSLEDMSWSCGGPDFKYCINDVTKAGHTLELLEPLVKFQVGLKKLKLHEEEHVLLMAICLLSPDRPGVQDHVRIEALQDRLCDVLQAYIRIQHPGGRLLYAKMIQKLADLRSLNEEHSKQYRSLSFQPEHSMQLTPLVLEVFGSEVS

[4] = biological target: T4, Sea lamprey VDR (Petromyzon marinus, UniProt Q7ZZY9); format: cell-based; conditions: for EC50: read-out: Sea lamprey VDR EC50 ± SD; for Effect on sea lamprey VDR: screening for activators, at least three concentrations of each drug
T4 sequence (Q7ZZY9 92-406): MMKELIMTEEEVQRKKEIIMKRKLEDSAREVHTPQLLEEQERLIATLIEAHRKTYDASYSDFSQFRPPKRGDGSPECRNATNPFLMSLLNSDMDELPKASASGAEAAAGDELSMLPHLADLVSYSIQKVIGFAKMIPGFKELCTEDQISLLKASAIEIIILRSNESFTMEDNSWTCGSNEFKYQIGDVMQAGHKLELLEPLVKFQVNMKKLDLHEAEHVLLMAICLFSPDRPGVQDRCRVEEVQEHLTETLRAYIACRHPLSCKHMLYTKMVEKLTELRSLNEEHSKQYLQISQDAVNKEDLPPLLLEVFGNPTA

[5] = biological target: T5, Mouse VDR (Mus musculus, UniProt P48281); assay: luciferase reporter transactivation assay in HepG2-NTCP cells, full-length mVDR with CYP3A4-PXRE-Luc; conditions: for EC50: read-out: Mouse VDR EC50 ± SD
T5 sequence (P48281 1-422): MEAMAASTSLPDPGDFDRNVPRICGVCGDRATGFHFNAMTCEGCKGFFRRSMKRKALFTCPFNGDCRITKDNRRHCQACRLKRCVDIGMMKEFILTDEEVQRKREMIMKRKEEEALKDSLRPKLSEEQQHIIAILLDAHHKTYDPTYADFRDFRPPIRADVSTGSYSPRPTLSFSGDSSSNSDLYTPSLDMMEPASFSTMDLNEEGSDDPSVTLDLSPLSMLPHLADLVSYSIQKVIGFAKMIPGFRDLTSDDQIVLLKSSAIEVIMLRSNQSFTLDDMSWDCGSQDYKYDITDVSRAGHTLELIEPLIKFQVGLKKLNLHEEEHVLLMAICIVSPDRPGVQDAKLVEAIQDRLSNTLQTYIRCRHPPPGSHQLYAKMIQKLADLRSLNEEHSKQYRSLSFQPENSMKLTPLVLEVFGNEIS

[6] = tested on: Ciona VDR/PXR; conditions: for Ciona VDR/PXR EC50 ± SD: HepG2-NTCP cells, luciferase reporter, unit not given, also cells saying No effect
[7] = tested on: testosterone 6β-hydroxylation; assay: testosterone hydroxylation (HPLC) in sea lamprey primary hepatocytes; format: cell-based; conditions: concentration ranges per compound
Description: 100 μL of sample, calibration standard, or quality material standard were pipetted into separate microcentrifuge tubes and mixed with 100 μL of methanol. Samples were vortexed and centrifuged at 13,000 rpm for 4 min. The supernatant was then injected into the HPLC.
The flow rate was 1.2 mL/min and total run time was 25 min.

[8] = relative to maximal reference compound (1 μM calcitriol, efficacy = 1.0)
[9] = relative to maximal reference compound (0.5 μM calcitriol, efficacy = 1.0)
[10] = HepG2-NTCP cells, luciferase reporter
[11] = HepG2-NTCP cells, luciferase reporter, unit not given, also cells saying No effect

Molecule: O=Cc1c2[nH]c3ccccc3c2cc2[nH]c3ccccc3c12 [6-Formylindolo-[3,2-b]-carbazole]
- Xenopus VDR relative efficacy [1]: ~0.10
- Human VDR relative efficacy [2, 8]: ~0.12
- Zebrafish VDR relative efficacy [3]: < 0.03
- Sea lamprey VDR relative efficacy [4]: 0.25
- Mouse VDR relative efficacy [5, 9]: ~0.08
- Ciona VDR/PXR relative efficacy ([6]; relative to maximal reference compound (20 μM 6-formylindolo-[3,2-b]-carbazole, efficacy = 1.0)): 1.0
- activation of ciVDR/PXR ([6]; unpublished data of the authors): activated

Molecule: C=C1CC[C@H](O)C/C1=C/C=C1\CCC[C@]2(C)[C@@H]([C@H](C)CC[C@@H](O)C(C)(C)O)CC[C@@H]12 [24(R),25-(OH)2-Vitamin D3]
- EC50 [1]: 11 ± 1.7 µM
- Xenopus VDR relative efficacy [1]: 0.20
- EC50 [2]: 0.3 ± 0.02 µM
- Human VDR relative efficacy [2, 8]: 0.9
- EC50 [3]: 0.7 ± 0.06 µM
- Zebrafish VDR relative efficacy [3]: 0.6
- EC50 [4, 10]: 5.6 ± 0.8 µM
- Sea lamprey VDR relative efficacy [4, 9]: 0.9
- EC50 [5, 10]: 0.3 ± 0.02 µM
- Mouse VDR relative efficacy [5, 9]: 1.7
- Ciona VDR/PXR EC50 ± SD [6]: No effect

Molecule: C=C1CC[C@H](O)C/C1=C/C=C1\CCC[C@]2(C)[C@@H]([C@H](C)CCCC(C)(C)O)CC[C@@H]12 [25-Hydroxyvitamin D3]
- EC50 [1]: 11 ± 0.8 µM
- Xenopus VDR relative efficacy [1]: 0.67
- Human VDR relative efficacy [2]: 1.22
- EC50 ([2]; unit M): 1.5 ± 0.2 µM
- EC50 [3]: 7.3 ± 0.8 µM
- Zebrafish VDR relative efficacy [3]: 0.91
- Sea lamprey VDR relative efficacy [4]: 0.63
- EC50 [4, 10]: 19 ± 2.1 µM
- Mouse VDR relative efficacy [5]: 2.62
- EC50 [5, 10]: 0.6 ± 0.1 µM
- Ciona VDR/PXR EC50 ± SD [6]: No effect
- effect on testosterone 6β-hydroxylation [7]: None of these compounds produced significant increases in testosterone 6β-hydroxylation

Molecule: C[C@H](CCC(=O)NCC(=O)O)[C@H]1CC[C@H]2[C@@H]3CC[C@@H]4C[C@H](O)CC[C@]4(C)[C@H]3CC[C@]12C [Glycolithocholic acid]
- Xenopus VDR EC50 ± SD [1]: No effect
- Human VDR EC50 ± SD [2]: No effect
- Zebrafish VDR EC50 ± SD [3]: No effect
- Sea lamprey VDR EC50 ± SD [4, 11]: No effect
- Mouse VDR relative efficacy [5]: 0.28
- Ciona VDR/PXR EC50 ± SD [6]: No effect

Molecule: C[C@H](CCC(=O)O)[C@H]1CC[C@H]2[C@@H]3CC[C@@H]4C[C@H](OS(=O)(=O)O)CC[C@]4(C)[C@H]3CC[C@]12C [Lithocholic acid 3-sulfate]
- Xenopus VDR EC50 ± SD [1]: No effect
- Human VDR EC50 ± SD [2]: No effect
- Zebrafish VDR EC50 ± SD [3]: No effect
- Sea lamprey VDR EC50 ± SD [4]: No effect
- Mouse VDR EC50 ± SD [5, 11]: No effect
- Ciona VDR/PXR EC50 ± SD [6]: No effect

Molecule: CC(=O)[C@H]1CC[C@H]2[C@@H]3CC=C4C[C@@H](O)CC[C@]4(C)[C@H]3CC[C@]12C [Pregnenolone]
- Effect on Xenopus laevis VDR [1]: No effect
- Effect on zebrafish VDR [3]: No effect
- Effect on sea lamprey VDR [4]: No effect
- effect on testosterone 6β-hydroxylation [7]: None of these compounds produced significant increases in testosterone 6β-hydroxylation

Molecule: C[C@H](CCC(=O)NCCS(=O)(=O)O)[C@H]1CC[C@H]2[C@@H]3CC[C@@H]4C[C@H](O)CC[C@]4(C)[C@H]3CC[C@]12C [Taurolithocholic acid]
- Xenopus VDR EC50 ± SD [1]: No effect
- Human VDR EC50 ± SD [2]: No effect
- Zebrafish VDR EC50 ± SD [3]: No effect
- Sea lamprey VDR EC50 ± SD [4, 11]: No effect
- Mouse VDR relative efficacy [5, 9]: 0.23
- Ciona VDR/PXR EC50 ± SD [6]: No effect

Molecule: Pregnenolone sulfate
- Effect on Xenopus laevis VDR [1]: No effect
- Effect on zebrafish VDR [3]: No effect
- Effect on sea lamprey VDR [4]: No effect
- effect on testosterone 6β-hydroxylation [7]: None of these compounds produced significant increases in testosterone 6β-hydroxylation
